# According to publication PMC6016474, “Structural and functional determination of homologs of the Mycobacterium tuberculosis N-acetylglucosamine-6-phosphate deacetylase (NagA)” (The Journal of Biological Chemistry, 2018):
# What was measured:
# MMNagA = target: T1, MMNagA (Mycobacterium marinum, UniProt B2HDT2); conditions: read-out: MST Kd; binder
# T1 construct: gene nagA; full-length from gDNA, N-terminal His6 tag (pET28a, NdeI/HindIII), E. coli BL21(DE3) with Mtb GroES chaperone
# MSNagA = target: T2, MSNagA (Mycolicibacterium smegmatis, UniProt A0QU89, D267A); experiment: X-ray co-crystal structure, […] Å; type: binding; conditions: active site of chain A at dimer interface, Zn and Cd modelled, ligand occupancy 0.75
# T2 construct: gene nagA; full-length, 385 residues, N-terminal His6 tag; expressed in M. smegmatis mc2 4517 (pYUB1062) for wild-type rows, in E. coli (pET28a) for D267A
# T2 sequence (A0QU89 1-385 D267A): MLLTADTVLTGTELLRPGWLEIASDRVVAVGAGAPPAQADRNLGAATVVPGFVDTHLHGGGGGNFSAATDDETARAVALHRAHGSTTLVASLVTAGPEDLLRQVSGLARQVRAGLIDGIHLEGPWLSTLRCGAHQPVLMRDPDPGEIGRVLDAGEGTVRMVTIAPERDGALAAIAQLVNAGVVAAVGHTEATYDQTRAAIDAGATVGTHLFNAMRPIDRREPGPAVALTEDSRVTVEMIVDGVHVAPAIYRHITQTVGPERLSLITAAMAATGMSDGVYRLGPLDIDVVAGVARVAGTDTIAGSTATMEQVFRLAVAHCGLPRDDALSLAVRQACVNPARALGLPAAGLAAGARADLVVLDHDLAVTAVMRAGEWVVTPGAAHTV
# T1 sequence (B2HDT2 entry or part of it): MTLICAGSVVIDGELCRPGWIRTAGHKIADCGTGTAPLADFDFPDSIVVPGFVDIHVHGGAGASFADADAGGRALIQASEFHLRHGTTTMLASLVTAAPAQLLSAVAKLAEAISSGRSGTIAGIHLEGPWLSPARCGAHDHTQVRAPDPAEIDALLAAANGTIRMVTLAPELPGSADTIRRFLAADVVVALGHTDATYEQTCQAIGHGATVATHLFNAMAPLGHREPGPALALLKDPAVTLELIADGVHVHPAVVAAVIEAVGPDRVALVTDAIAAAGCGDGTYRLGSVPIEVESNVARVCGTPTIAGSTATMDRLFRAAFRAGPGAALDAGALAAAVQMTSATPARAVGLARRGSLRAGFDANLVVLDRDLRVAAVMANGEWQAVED
SMILES,Kd (MMNagA) [mM],"X-ray co-crystal structure, 2.0 Å (MSNagA)"
CC(=O)N[C@H]1C(O)O[C@H](COP(=O)(O)O)[C@@H](O)[C@@H]1O (stereo partly drawn) [GlcNAc6P],1.2 ± 0.05,6FV4 for the GlcNAc6P-MSNagA co-crystal structure
CC(=O)N[C@@H]1C(O)O[C@H](COP(=O)(O)O)[C@@H](O)[C@@H]1O (stereo partly drawn) [ManNAc6P],3.8 ± 0.3,–
